Test results from patent publication US20250066371A1, “FLUOROALKOXYALKYLENE-DIHYDROIMIDAZO[5,1-D]TETRAZINONE COMPOUNDS AND RELATED COMPOUNDS AND THEIR USE IN TREATING MEDICAL CONDITIONS” (priority 2023, published 2025).

Experiments:
SR = assay: Cell panel nuclear dye assay; type: cell-based; conditions: Homo sapiens, 120 h, Lymphoma (large cell immunoblastic), 5-day incubation
Protocol: (§1) Cells were grown in RPMI1640, 10% FBS, 2 mM L-alanyl-L-glutamine, 1 mM Na pyruvate, or a special medium. Cells were seeded into 384-well plates and incubated in a humidified atmosphere of 5% CO2 at 37° C. Compound was added the day following cell seeding. At the same time, a time zero untreated cell plate was generated. After a 5-day incubation period, cells were fixed and stained to allow fluorescence imaging of nuclei.
(§2) Compounds were serially diluted in 2-fold steps from the highest test concentration specified, and assayed over 10 concentrations with a maximum assay concentration of 0.1% DMSO. Automated fluorescence microscopy was carried out using a Molecular Devices ImageXpress Micro XL high-content imager, and images were collected with a 4× objective. 16-bit TIFF images were acquired and analyzed with MetaXpress 5.1.0.41 software.
(§3) Cell proliferation was measured by the fluorescence intensity of an incorporated nuclear dye. The output is referred to as the relative cell count, where the measured nuclear intensity is transformed to percent of control (POC) using the following formula: […]
(§4) Cell count IC50 is the test compound concentration at 50% of maximal possible response. EC50 is the test compound concentration at the curve inflection point or half the effective response (parameter C of the fitted curve solution). GI50 is the concentration needed to reduce the observed growth by half (midway between the curve maximum and the time zero value). Activity area is an estimate of the integrated area above the curve. Activity area values range from 0-10, where a value of zero indicates no inhibition of proliferation at all concentrations, and a value of 10 indicates complete inhibition of proliferation at all concentrations. In rare instances, values <0 or >10 may be observed. In these instances, values <0 should be considered as equivalent to 0, whereas values >10 should be considered equivalent to 10.

OE21 = assay: Cell panel nuclear dye assay; type: cell-based; conditions: 120 h, Head & neck (squamous cell carcinoma, esophagus), 5-day incubation
Protocol: as §1, §2, §3, §4

CHP-212 = assay: Cell panel nuclear dye assay; type: cell-based; conditions: Homo sapiens, 120 h, Neuroblastoma, 5-day incubation
Protocol: as §1, §2, §3, §4

VA-ES-BJ = assay: Cell panel nuclear dye assay; type: cell-based; conditions: 120 h, Sarcoma (epitheloid), 5-day incubation
Protocol: as §1, §2, §3, §4

SW1088 = assay: Cell panel nuclear dye assay; type: cell-based; conditions: Homo sapiens, 120 h, Glioma (astrocytoma), 5-day incubation
Protocol: as §1, §2, §3, §4

SU-DHL-10 = assay: Cell panel nuclear dye assay; type: cell-based; conditions: Homo sapiens, SU-DHL10, 120 h, Lymphoma (large cell), 5-day incubation
Protocol: as §1, §2, §3, §4

A427 = assay: Cell panel nuclear dye assay; type: cell-based; conditions: Homo sapiens, A-427, 120 h, Lung (NSCLC), 5-day incubation
Protocol: as §1, §2, §3, §4

Colo 320DM = assay: Cell panel nuclear dye assay; type: cell-based; conditions: Homo sapiens, 120 h, Colon, 5-day incubation
Protocol: as §1, §2, §3, §4

A-253 = assay: Cell panel nuclear dye assay; type: cell-based; conditions: Homo sapiens, A253, 120 h, Head & neck (epidermoid carcinoma, salivary gland), 5-day incubation
Protocol: as §1, §2, §3, §4

SW1783 = assay: Cell panel nuclear dye assay; type: cell-based; conditions: Homo sapiens, 120 h, Glioma (astrocytoma), 5-day incubation
Protocol: as §1, §2, §3, §4

HOS = assay: Cell panel nuclear dye assay; type: cell-based; conditions: Homo sapiens, 120 h, Osteosarcoma, 5-day incubation
Protocol: as §1, §2, §3, §4

SCC-4 = assay: Cell panel nuclear dye assay; type: cell-based; conditions: Homo sapiens, 120 h, Head & neck (squamous cell carcinoma, tongue), 5-day incubation
Protocol: as §1, §2, §3, §4

DBTRG-05MG = assay: Cell panel nuclear dye assay; type: cell-based; conditions: Homo sapiens, 120 h, Glioma (glioblastoma multiforme), 5-day incubation
Protocol: as §1, §2, §3, §4

Hs 294T = assay: Cell panel nuclear dye assay; type: cell-based; conditions: Homo sapiens, 120 h, Melanoma, 5-day incubation
Protocol: as §1, §2, §3, §4

DK-MG = assay: Cell panel nuclear dye assay; type: cell-based; conditions: 120 h, Glioma, 5-day incubation
Protocol: as §1, §2, §3, §4

[1] = test system: 885 barcoded cancer cell lines; assay: PRISM multiplexed cell-viability assay (Example 45); type: cell-based; conditions: 5-day treatment; for Log 2 fold change in abundance of the cells: 66.7 μM
Text: The multiplexed cell-viability platform, PRISM (profiling relative inhibition simultaneously in mixtures), enabled multiplexed screening of Compound I-1 across 900 barcoded cell lines representing more than 45 lineages. Details of the assay technique are described in Yu, C., et al. “High-throughput identification of genotype-specific cancer vulnerabilities in mixtures of barcoded tumor cell lines,” Nat. Biotechnol. 2016, Vol. 34, p. 419-423; and Corsello, S. M., et al. “Discovering the anti-cancer potential of non-oncology drugs by systematic viability profiling,” Nat. Cancer, 2020, Vol. 1, p. 235-248; each of which are hereby incorporated by reference in their entirety.
Briefly, unique oligonucleotide barcodes are stably transduced into individual cancer cell lines. Following barcode transduction, individual cell lines are pooled together in groups of 20-25 based on growth rate similarity, then thawed into 384-well assay-ready plates, and treated with test compound. After 5 days of incubation, isolated mRNA is used to quantify transcribed barcode abundance of each individual cancer cell line to calculate relative viability (Log 2 fold change, “LFC”).
Compound I-1 was screened in the PRISM assay at 8-point dose (3-fold dilution) with a 5-day treatment with 885 cancer cell lines passing QC. Two PRISM cell line collections were used in the assay: PR500 (including only adherent cell lines) and PR300+(including adherent and suspension cell lines). Benchmark compounds (included in the validation compounds) were also tested at doses to ensure high data quality. All compounds were run in triplicate, and each plate contained positive (Bortezomib, 20 μM) and negative (DMSO) controls.

dogs = assay: Animal model toxicity testing in dogs; conditions: tested doses exceeded those at which A1 caused 100% mortality

## NC(=O)c1ncn2c(=O)n(CCOC(F)(F)F)nnc12 [Compound I-1, 4-Oxo-3-(2-(trifluoromethoxy)ethyl)-3,4-dihydroimidazo[5,1-d][1,2,3,5]tetrazine-8-carboxamide]
SR
  EC50: ≤ 30 µM
  IC50: ≤ 30 µM
OE21
  EC50: 30 to 70 µM
  IC50: 30 to 70 µM
CHP-212
  EC50: ≤ 30 µM
  IC50: ≤ 30 µM
VA-ES-BJ
  EC50: 70 to 150 µM
  IC50: > 150 µM
SW1088
  EC50: 70 to 150 µM
  IC50: 70 to 150 µM
SU-DHL-10
  EC50: ≤ 30 µM
  IC50: 30 to 70 µM
A427
  EC50: 30 to 70 µM
  IC50: 30 to 70 µM
Colo 320DM
  EC50: 30 to 70 µM
  IC50: 30 to 70 µM
A-253
  EC50: 70 to 150 µM
  IC50: 70 to 150 µM
SW1783
  EC50: 70 to 150 µM
  IC50: 70 to 150 µM
HOS
  EC50: 30 to 70 µM
  IC50: 30 to 70 µM
SCC-4
  EC50: ≤ 30 µM
  IC50: > 150 µM
DBTRG-05MG
  EC50: ≤ 30 µM
  IC50: ≤ 30 µM
Hs 294T
  EC50: ≤ 30 µM
  IC50: ≤ 30 µM
DK-MG
  EC50: ≤ 30 µM
  IC50: 30 to 70 µM
[1]; cell lines of Table 8
  Log 2 fold change in abundance of the cells: −3.5 to −2.0
[1]; cell lines of Table 9
  Log 2 fold change in abundance of the cells: −2.0 to −1.0
[1]; cell lines of Table 10
  Log 2 fold change in abundance of the cells: −1.0 to −0.5
[1]; cell lines of Table 11
  Log 2 fold change in abundance of the cells: −0.5 to −0.001
[1]; cell lines of Table 12
  anti-cancer effect: did not appear to provide an anti-cancer effect
dogs
  adverse clinical signs: no adverse clinical signs were observed
